Reference: patent US9937174B2, “Combinations of histone deacetylase inhibitors and bendamustine” (priority 2014, dated 2018)
pIC50: −log10 of the molar value. Where two headings read alike, the source gives them in different places.

Columns and labels:
[1] = tested on: lymphoma cell lines (WSU-NHL, Hut-78, Jeko-1); test: Cell cycle analysis by flow cytometry; conditions: 24 h
Procedure: The bars of M1, M2, M3 and M4 indicate the sub-G0/G1, G0/G1, S and G2/M phases, respectively.
All values represent the mean±SD of three independent experiments.
(§5) Apoptosis, reactive oxygen species (ROS), cell cycle analysis, and Bcl-2 protein expression were measured by flow cytometry.

Karpas-299 = test: MTT cell viability in Karpas-299 cells; format: cell-based; conditions: Homo sapiens, Karpas-299, 48 h
Procedure: (§1) HDAC6 protein is expressed in all cell lines examined (FIG. 1A). Ricolinostat was administered to each cell line at various concentrations (0.01, 0.1, 1, 5, and 10 μM), and cell viability was measured at 24, 48, and 72 hours.

HDAC6 = target: T1, HDAC6 (Homo sapiens, UniProt Q9UBN7); test: Western blot of HDAC6 and acetylated α-tubulin; format: cell-based; conditions: 24 h
T1 construct: endogenous in cells; host or cells: WSU-NHL, Hut-78, Jeko-1 lymphoma cell lines
T1 sequence (Q9UBN7 1-1215): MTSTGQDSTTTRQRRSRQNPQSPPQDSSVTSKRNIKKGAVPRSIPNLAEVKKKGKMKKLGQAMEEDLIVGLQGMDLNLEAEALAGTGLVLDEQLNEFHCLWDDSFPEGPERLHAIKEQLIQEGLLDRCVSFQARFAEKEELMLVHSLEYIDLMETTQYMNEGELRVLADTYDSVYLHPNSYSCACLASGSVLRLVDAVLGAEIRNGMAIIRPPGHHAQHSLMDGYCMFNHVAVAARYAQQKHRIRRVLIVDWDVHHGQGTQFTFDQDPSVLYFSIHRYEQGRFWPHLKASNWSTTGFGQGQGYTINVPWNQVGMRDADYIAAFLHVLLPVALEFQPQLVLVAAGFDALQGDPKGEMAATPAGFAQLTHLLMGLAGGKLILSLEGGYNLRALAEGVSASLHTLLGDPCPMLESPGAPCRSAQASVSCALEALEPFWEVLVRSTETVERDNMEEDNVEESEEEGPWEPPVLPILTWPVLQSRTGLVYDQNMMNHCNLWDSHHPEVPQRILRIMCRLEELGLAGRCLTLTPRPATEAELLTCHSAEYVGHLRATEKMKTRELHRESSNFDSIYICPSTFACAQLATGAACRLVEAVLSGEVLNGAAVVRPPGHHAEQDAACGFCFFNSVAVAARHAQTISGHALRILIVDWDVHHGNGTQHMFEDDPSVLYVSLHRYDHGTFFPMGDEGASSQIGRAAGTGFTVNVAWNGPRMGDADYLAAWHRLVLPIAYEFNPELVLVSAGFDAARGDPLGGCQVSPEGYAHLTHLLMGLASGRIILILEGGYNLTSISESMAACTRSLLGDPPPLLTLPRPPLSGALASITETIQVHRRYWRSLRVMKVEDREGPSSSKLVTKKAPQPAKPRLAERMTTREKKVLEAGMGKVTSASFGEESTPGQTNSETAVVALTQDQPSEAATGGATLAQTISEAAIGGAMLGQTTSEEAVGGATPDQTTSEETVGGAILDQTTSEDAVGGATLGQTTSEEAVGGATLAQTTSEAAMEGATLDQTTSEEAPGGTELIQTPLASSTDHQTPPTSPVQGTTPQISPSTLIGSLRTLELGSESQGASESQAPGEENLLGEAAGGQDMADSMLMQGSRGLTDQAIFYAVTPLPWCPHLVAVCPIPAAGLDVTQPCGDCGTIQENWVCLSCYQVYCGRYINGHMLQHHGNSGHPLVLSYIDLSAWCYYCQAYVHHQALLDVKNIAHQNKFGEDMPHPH
Excerpt: Tubulin was used to normalize protein loading.

tubulin polymerization = test: Tubulin polymerization by α-tubulin staining and flow cytometry; conditions: 24 hours, intensity of fluorescence
Procedure: Data are expressed as mean±SD and were obtained from three independent experiments performed in triplicate.
Lymphoma cells were treated for 24 hours with ricolinostat alone and in combination with bendamustine along with the microtubule destabilizer nocodazole (1 μM) and the microtubule stabilizer paclitaxel (100 nM). This was followed by whole cell-based quantitative measurement of tubulin polymerization using alpha-tubulin staining.

Granta-519 = test: cells; format: cell-based; conditions: Homo sapiens, MTT
Procedure: (§2) Ricolinostat was administered to each cell line at various concentrations (0.01, 0.1, 1, 5, and 10 μM), and cell viability was measured at 24, 48, and 72 hours.

WSU-NHL = test: cells; format: cell-based; conditions: Homo sapiens
Procedure: as §2
(§3) Bendamustine was administered to each cell line at various concentrations (25, 50, 100, 200, and 300 μM), and cell viability was measured at 24 and 48 hours.
(§4) The effect of the drugs on each cell line was determined, and the combination index (CI) was measured. A CI<1 means synergy; a CI=1 means an additive effect; and a CI>1 means antagonism.

Hut-78 = test: cells; format: cell-based; conditions: Homo sapiens
Procedure: as §2, §3, §4

Jeko-1 = test: cells; format: cell-based; conditions: Homo sapiens
Procedure: as §2, §3, §4

lymphoma cell lines = test: cells; format: cell-based
[2] = tested on: lymphoma cell lines (WSU-NHL, Hut-78, Jeko-1); format: cell-based; conditions: flow cytometry, 24-48 h
Procedure: In FIG. 5A WSU-NHL cells were treated with either ricolinostat, bendamustine, or ricolinostat and bendamustine at the indicated concentrations. After 24 hours, the cells were fixed and stained with propidium iodide, and were analyzed by flow cytometry. […] This effect was enhanced by the combination with bendamustine (FIGS. 5C and 5D).

[3] = tested on: WSU-NHL, Hut-78 and Jeko-1 cells; test: Methylcellulose clonogenic assay; format: cell-based; conditions: 24 h liquid culture, colonies counted after 10 days
Procedure: FIG. 2D and FIG. 2E show effects of ricolinostat alone and in combination with bendamustine on clonogenic survival. WSU-NHL, Hut-78 and Jeko-1 cells were first incubated with ricolinostat alone (1, 5, 10 μM) (C) and subsequently in combination with bendamustine (D) in liquid culture for 24 h. Treated cells were incubated in methylcellulose and colonies consisting of more 50 cell were counted after 10 days. The relative percentage with respect to control cells are shown and represent the mean±SD of three separate experiments.

[4] = tested on: reactive oxygen species (ROS); test: ROS generation by flow cytometry and Trx1 western blot; conditions: 24 h and 48 h
Procedure: All data are expressed as the mean±SD of triplicate culture.
H2O2 was used as a positive control.
as §5

RL = test: MTT cell viability in RL cells; format: cell-based; conditions: Homo sapiens, 48 h
Procedure: as §1

IL-10 = IL-10 secretion by ELISA
Procedure: IL-10 secretion was analyzed by ELISA. All data are means (±SD) of at least three separate experiments each performed in duplicate.

For `O=C(CCCCCCNC(=O)c1cnc(N(c2ccccc2)c2ccccc2)nc1)NO` [ricolinostat, 2-(diphenylamino)-N-(7-(hydroxyamino)-7-oxoheptyl)pyrimidine-5-carboxamide], which cell cycle distribution [1] is on record?
The cell cycle distribution was “increase in the percentage of cells in the G0/G1 phase and a decrease in the G2/M phase”.

And the pIC50 (Karpas-299)?
The pIC50 was 5.32.

And the “HDAC6 expression and acetylation level of α-tubulin” value (HDAC6)?
The value was “reduced HDAC6 expression and induced the acetylation level of α-tubulin”.

And the tubulin polymerization (tubulin polymerization)?
Its tubulin polymerization is “induced tubulin polymerization”.

What about the pIC50 (Granta-519; Granta-519, 24 h) of the same compound?
Its pIC50 is 4.19.

What about the pIC50 (Granta-519; Granta-519, 48 h) of the same compound?
The pIC50 was 4.70.

And the pIC50 (WSU-NHL; 24 h, MTT, read-out: IC50)?
Its pIC50 is 5.06.

And the pIC50 (WSU-NHL; 48 h, MTT, read-out: IC50)?
Its pIC50 is 5.71.

What about the pIC50 (Hut-78; HuT78, 48 h, Hut-78, 48 h, MTT, read-out: IC50) of the same compound?
The pIC50 was 5.82.

And the pIC50 (Hut-78; HuT78, 48 h, Hut-78, 48 hours, MTT, read-out: IC50)?
Its pIC50 is 5.82.

What about the pIC50 (Jeko-1; Jeko-1, 48 h, MTT, read-out: IC50) of the same compound?
Its pIC50 is 5.47.

And the pIC50 (lymphoma cell lines; lymphoma cell lines, exposure 24-72 hours, read-out: IC50 values ranging)?
The pIC50 was 5.06 to 6.77.

And the pIC50 (lymphoma cell lines; panel of six lymphoma cell lines, 24 and 48 h, read-out: IC50 values ranging)?
The pIC50 was 4.19 to 5.82.

What about the induction of apoptosis [2] of the same compound?
The induction of apoptosis was “induced apoptosis in all cell lines examined in time- and dose dependent manner”.

What about the “clonogenic survival / colony formation” value [3] of the same compound?
Its value is “reduced clonogenic survival in a dose dependent manner”.

And the ROS generation [4]?
The ROS generation was “induced an increase of ROS production at 24 h, which further increased after 48 h”.

And the pIC50 (RL)?
The pIC50 was 5.47.

What about the IL-10 secretion (IL-10) of the same compound?
Its IL-10 secretion is “down-regulation of IL-10”.

`Cn1c(CCCC(=O)O)nc2cc(N(CCCl)CCCl)ccc21` [bendamustine, 4-[5-[Bis(2-chloroethyl)amino]-1-methylbenzimidazol-2-yl]butanoic acid] was tested. Which pIC50 (WSU-NHL; 24 h, read-out: IC50 at 24 hours) did it give?
The pIC50 was 3.77.

What about the pIC50 (Hut-78; HuT78, 24 h, read-out: IC50 at 24 hours) of the same compound?
The pIC50 was 3.84.

What about the pIC50 (Jeko-1; JeKo-1, 24 h, read-out: IC50 at 24 hours) of the same compound?
The pIC50 was 3.90.

And the pIC50 (lymphoma cell lines; 24 h, read-out: range of IC50)?
The pIC50 was 3.77 to 3.90.
